Assay results published in publication PMC7738508, “A therapeutic combination of two small molecule toxin inhibitors provides broad preclinical efficacy against viper snakebite” (Nature Communications, 2020).
Where “and” joins values, the source holds several entries; their conditions need not be identical. Equal values may be shown once.

Tests used:
[1] = system: coagulopathic activity of Daboia russelii venom (citrated bovine plasma); assay: plasma clotting assay; assay type: biochemical; design: key to maximum clotting velocity: max of first derivative of A595 clot curve (max clotting velocity); conditions: for maximum clotting velocity: Daboia russelii venom 100 ng, independent repeats
Method: (§1) We used a previously developed plasma clotting assay[35] to measure venom-induced coagulation. Briefly, 100 ng of each venom was incubated at 37 °C for 30 min in the presence or absence of inhibitors (150 µM to 150 nM final concentrations). The final reaction consisted of 10 µl venom ± inhibitors in PBS, 20 µl 20 mM CaCl2, and 20 µl citrated bovine plasma (VWR). The samples were pipetted in triplicate into 384-well plates, and absorbance monitored at 595 nm for 2 h at 25 °C on an Omega FLUOstar instrument. We calculated the maximum clotting velocity of each of the curves as per clot waveform analysis, by calculating the maximum of the first derivative. The means of at least three independent experimental runs for each condition were plotted at each inhibitor concentration with SEMs.

[2] = system: procoagulant activity of Bothrops asper venom (citrated bovine plasma); assay: plasma clotting assay; assay type: biochemical; conditions: Bothrops asper venom 100 ng, independent repeats
Method: as §1

[3] = system: procoagulant activity of Echis ocellatus venom (citrated bovine plasma); assay: plasma clotting assay; assay type: biochemical; conditions: Echis ocellatus venom 100 ng, independent repeats
Method: as §1

[4] = system: SVMP bioactivity of the four active venoms (E. ocellatus, E. carinatus, B. asper, B. arietans); assay: in vitro kinetic fluorogenic SVMP assay, viper venoms overall; assay type: biochemical
Method: (§2) The SVMP assay measuring metalloproteinase activity and the plasma assay measuring coagulation in the presence or absence of venoms and inhibitors were performed as previously described. The SVMP assay kinetically measured cleavage of a quenched fluorogenic substrate (ES010, R&D Biosystems) by venom in the presence or absence of inhibitors.
(§3) Briefly, 10 µl of the substrate (supplied as a 6.2 mM stock) was used per 5 ml reaction buffer (150 mM NaCl, 50 mM Tris-Cl pH 7.5). Reactions consisted of 10 µl of venom ± inhibitors in PBS and 90 µl of substrate. Venoms were used at 1 µg/reaction and final inhibitor concentrations ranged from 150 µM to 150 nM. Samples were preincubated for 30 min at 37 °C and pipetted in triplicate into 384-well plates (Greiner). Thereafter, data was collected on an Omega FLUOstar (BMG Labtech) instrument at an excitation wavelength of 320 nm and emission wavelength of 405 nm at 25 °C for 1 h. The areas under the curve (AUCs) in the 0–40 min interval were calculated for each sample using MARS data analysis software v3.31 (BMG Labtech); this time point was chosen as the time where all fluorescence curves had reached a plateau (maximum fluorescence). For comparing venom-only samples, the means of at least three independent experimental runs for each condition, expressed as AUCs (n ≥ 3), were plotted at each inhibitor concentration with standard error of the mean (SEM). To determine inhibitor efficacy, the AUCs for each of the samples that consisted of venom + inhibitors were transformed and expressed as percentages of the venom-only sample (where the venom was 100%). The negative control (PBS-only) was also expressed relative to the venom, and the variation in background was presented as an interval delineated by the lowest and highest values in the PBS-only samples across concentrations and inhibitors for a specific venom.

[5] = system: procoagulant activity of viper venoms (citrated bovine plasma); assay: plasma clotting assay, viper venoms overall; assay type: biochemical
Method: as §1

[6] = system: E. ocellatus venom; conditions: cited from earlier work
[7] = system: Echis ocellatus venom SVMP activity; assay: fluorogenic SVMP assay; assay type: biochemical; conditions: independent repeats
Method: as §2, §3

[8] = system: Bothrops asper venom SVMP activity; assay: fluorogenic SVMP assay; assay type: biochemical; conditions: independent repeats
Method: as §2, §3

[9] = system: Echis carinatus venom SVMP activity; assay: fluorogenic SVMP assay; assay type: biochemical; conditions: independent repeats
Method: as §2, §3

[10] = system: Bitis arietans venom SVMP activity; assay: fluorogenic SVMP assay; assay type: biochemical; conditions: independent repeats
Method: as §2, §3

[11] = system: procoagulant activity of Echis carinatus venom (citrated bovine plasma); assay: plasma clotting assay; assay type: biochemical; design: key: max of first derivative of A595 clot curve (max clotting velocity); conditions: Echis carinatus venom 100 ng, independent repeats
Method: as §1

[12] = system: Echis ocellatus venom SVSP activity; assay: chromogenic SVSP assay; assay type: biochemical; conditions: nafamostat 150 nM, independent repeats
Method: (§4) SVSP activity was measured using a chromogenic substrate (S-2288, Cambridge Bioscience). Reactions consisted of 15 µl of venom ± inhibitors in PBS, 15 µl of assay buffer (100 mM Tris-Cl pH 8.5, 100 mM NaCl) and 15 µl of 6 mM substrate. A positive venom-only control, a negative control containing 15 µl of PBS and a drug-only control (where applicable) were also included. The final substrate concentration was 2 mM and venoms were used at 1 µg/reaction. When testing inhibitors, these were preincubated with the venoms for 30 min at 37 °C with concentrations ranging from 150 µM to 150 nM (tenfold dilutions). The samples were pipetted in triplicate into 384-well plates (Greiner) and absorbance at 405 nm was monitored kinetically for ~30 min on an Omega FLUOstar instrument (BMG Labtech). Given the linearity of the resulting slopes, negative control readings (PBS) were subtracted from each reading and the rate of substrate consumption calculated by measuring the slope between 0 and 5 min. The mean rates (expressed as ΔAbs/time/µg venom) of at least three independent experimental runs for each condition (n ≥ 3) were plotted at each inhibitor concentration with SEMs using Prism v8 software (GraphPad).

[13] = system: Echis carinatus venom SVSP activity; assay: chromogenic SVSP assay; assay type: biochemical; conditions: independent repeats
Method: as §4

[14] = system: Bitis arietans venom SVSP activity; assay: chromogenic SVSP assay; assay type: biochemical; conditions: independent repeats
Method: as §4

[15] = system: Bothrops asper venom SVSP activity; assay: chromogenic SVSP assay; assay type: biochemical; conditions: independent repeats
Method: as §4

[16] = cited from earlier work
[17] = system: SVSP activity of viper venoms; assay: chromogenic SVSP assay, viper venoms overall; assay type: biochemical
Method: as §4

[18] = system: plasma coagulation; assay type: biochemical, bovine; conditions: no venom; high doses (150 µM)
Method: as §1

[19] = system: E. ocellatus venom; assay: in vivo preincubation model of envenoming (i.v.); design: species or system CD-1 mice
Method: All animal experiments were conducted using protocols approved by the Animal Welfare and Ethical Review Boards of the Liverpool School of Tropical Medicine and the University of Liverpool, and performed in specific pathogen-free conditions under licensed approval (PPL #4003718 and #P5846F90) of the UK Home Office and in accordance with the Animal [Scientific Procedures] Act 1986 and institutional guidance on animal care. All experimental animals (18–20 g [4–5 weeks old], male, CD-1 mice, Charles River, UK) were housed in groups of five with environmental enrichment, water and food ad libitum and their health monitored daily during acclimatization. The experimental design was based upon 3R-refined WHO-recommended protocols[28],[41], with animals randomized and observers being blinded to the experimental condition. The median lethal doses (venom LD50) used for E. ocellatus (Nigeria), E. carinatus (India), B. asper (Costa Rica), D. russelii (Sri Lanka) and B. arietans (Nigeria) venoms were previously determined[25],[41],[44],[45].
All experimental doses were prepared to a volume of 200 µl in PBS and incubated at 37 °C for 30 min prior to their intravenous injection via the tail vein. Animals were monitored for 6 h, and euthanized via rising concentrations of CO2 upon observation of previously defined humane end points that are predicators of lethality (e.g., seizure, pulmonary distress, paralysis, hemorrhage)[28]. Deaths, time of death, and survivors were recorded; where death/time of death actually represents the implementation of euthanasia based on defined humane end points.
For all experimental animals described above, blood samples were collected via cardiac puncture immediately post-euthanasia. Plasma was separated by centrifugation at 400 × g for 10 min and stored at −80 °C. We assessed the levels of thrombin-antithrombin complexes (TAT) and soluble thrombomodulin using mouse ELISA Kits (ab137994 and ab209880, Abcam), following the manufacturer’s protocol. All available plasma samples (some were unobtainable via cardiac puncture due to extensive internal hemorrhage) were assessed if the time of death within the group varied, whereas three samples were randomly chosen if the time of death was the same (e.g., either very rapid death within 2 min, or survival until the end of the experiment [360 min or 24 h]). The resulting data was plotted as the median of duplicate measurements for each animal and is presented with standard deviations (SDs).

O=S(=O)(O)CC(S)CS (stereo not drawn) [DMPS, 2,3-dimercapto-1-propanesulfonic acid]
neutralizing the procoagulant activity ([1]; D. russelii venom): ineffective
maximum clotting velocity ([1]; inhibitor 15 µM): 0.1186 and 0.1081 and 0.1102
maximum clotting velocity ([1]; inhibitor 150 µM): 0.07853 and 0.08841 and 0.07869
maximum clotting velocity ([2]; inhibitor 15 µM): 0.04261 and 0.04406 and 0.05475
maximum clotting velocity ([2]; inhibitor 150 µM): 0.03159 and 0.02725 and 0.0282
maximum clotting velocity ([3]; inhibitor 15 µM): 0.09233 and 0.098 and 0.085
maximum clotting velocity ([3]; inhibitor 150 µM): 0.03733 and 0.04867 and 0.039
lowest concentration generally effective / required to fully inhibit SVMP activities ([4]; across the active venoms): 15 µM
IC50 ([4]; range across the active venoms, read-out: IC50s, inhibition of venom SVMP activity): 290 to 4190 nM
neutralizing the procoagulant activities ([5]; E. ocellatus, E. carinatus and B. asper venoms, highest dose 150 µM): effective
IC50 ([5]; range across all venoms, lower end of dimercaprol and marimastat ranges given as < 0.15, read-out: IC50, inhibition of procoagulant venom activity): 800 to 25900 nM
survival time of individual animals (Kaplan-Meier source data) ([6]; 90 µg E. ocellatus venom i.p., 120 µg DMPS i.p. 15 mins later, D + AV also 168 µl EchiTAbG i.v. 1 hr after venom, 1 = death (=), 0 = survived (>=), ref Albulescu et al.1): 12.6 h and 21.51 h and 15.51 h and ≥ 24 h
duration for which lethality was prevented ([6]; same preclinical model, E. ocellatus): ~ 8 h
SVMP activity, percentage of the venom-only sample ([7]; inhibitor 15 µM): 18.6328% and 21.5132% and 17.5016%
SVMP activity, percentage of the venom-only sample ([7]; inhibitor 150 µM): 15.3569% and 14.8369% and 16.006%
SVMP activity, percentage of the venom-only sample ([8]; inhibitor 15 µM): 34.6541% and 41.4523% and 39.2938%
SVMP activity, percentage of the venom-only sample ([8]; inhibitor 150 µM): 33.142% and 30.6392% and 28.5849%
SVMP activity, percentage of the venom-only sample ([9]; inhibitor 15 µM): 24.5956% and 26.5777% and 20.6819%
SVMP activity, percentage of the venom-only sample ([9]; inhibitor 150 µM): 13.0224% and 14.752% and 12.5581%
SVMP activity, percentage of the venom-only sample ([10]; inhibitor 15 µM): 22.3961% and 20.1207% and 18.6801%
SVMP activity, percentage of the venom-only sample ([10]; inhibitor 150 µM): 20.1452% and 19.0476% and 17.6656%
maximum clotting velocity ([11]; inhibitor 15 µM): 0.04133 and 0.038 and 0.05133
maximum clotting velocity ([11]; inhibitor 150 µM): 0.033 and 0.04 and 0.03533

N=C(N)c1ccc2cc(OC(=O)c3ccc(N=C(N)N)cc3)ccc2c1 [nafamostat]
SVSP activity, rate of substrate consumption [12]: 0.01667 ΔAbs/time/µg venom and 0.02387 ΔAbs/time/µg venom and 0.02696 ΔAbs/time/µg venom
SVSP activity, rate of substrate consumption ([13]; nafamostat 150 nM): 0.08494 ΔAbs/time/µg venom and 0.09756 ΔAbs/time/µg venom and 0.1079 ΔAbs/time/µg venom
SVSP activity, rate of substrate consumption ([13]; nafamostat 15 uM): 0.001726 ΔAbs/time/µg venom and 0.002857 ΔAbs/time/µg venom and 0.003095 ΔAbs/time/µg venom
SVSP activity, rate of substrate consumption ([14]; nafamostat 150 nM): 0.0636 ΔAbs/time/µg venom and 0.06929 ΔAbs/time/µg venom and 0.08741 ΔAbs/time/µg venom
SVSP activity, rate of substrate consumption ([14]; nafamostat 15 uM): 0.0014 ΔAbs/time/µg venom and 0.001071 ΔAbs/time/µg venom and 0.001786 ΔAbs/time/µg venom
SVSP activity, rate of substrate consumption ([15]; nafamostat 150 nM): 0.03413 ΔAbs/time/µg venom and 0.03851 ΔAbs/time/µg venom and 0.04036 ΔAbs/time/µg venom
SVSP activity, rate of substrate consumption ([15]; nafamostat 15 uM): 0.003733 ΔAbs/time/µg venom and 0.002738 ΔAbs/time/µg venom and 0.004018 ΔAbs/time/µg venom
half-life [16]: ~ 8 min
inhibition of SVSP activity ([17]; highest doses 150 and 15 µM, irrespective of venom): completely inhibiting SVSP activity
IC50 ([17]; range across venoms, read-out: IC50s, inhibition of venom SVSP activity): 120 to 1070 nM
effect on normal plasma clotting [18]: dramatically inhibits plasma coagulation
protection against venom-induced lethality ([19]; 45 µg E. ocellatus venom preincubated with 60 µg of each drug, i.v., 6 h): no evident efficacy
thrombin-antithrombin (TAT) levels, range in group ([19]; plasma after euthanasia, E. ocellatus venom + 60 µg of each drug, venom-only mean 1127.3, normal mice 10.2–15.9): 543.9 to 859.1 ng/mL
